Where a SMILES comes first, the peptide text is derived from it.
Tests used:
[1] = Pharmacokinetic testing in rats; format: in vivo, SD rats; details: male, SD, rat, plasma, PO 20 mg/kg
Method: Rats were used as test animals to study the pharmacokinetic behavior of the following compounds in rat plasma.
The drugs were self-made according to the examples of the present invention.
SD rats, 6-8 weeks old, 3 for each administration method/example, male.
The animals were fasted overnight, ate food 8 hours after taking the drug, and drank water freely.
Blood was collected before administration and at 5 min, 15 min, 30 min, 1 hr, 2 hr, 4 hr, 8 hr and 24 hr after administration.
The blood was placed on wet ice and centrifuged to obtain plasma sample (2000 g, 5 min at 4° C.).
The LC-MS/MS method was used to determine the blood drug concentration. The HPLC conditions were: mobile phase A: H2O-0.5% FA; mobile phase B: ACN-0.5% FA;
WinNonlin 8.2 non-compartmental model was used to estimate pharmacokinetic parameters (PK parameters, including but not limited to peak concentration (Cmax), time to peak (Tmax), terminal elimination rate (Ke), terminal elimination half-life (T1/2), area under drug-time curve (AUC), clearance rate (CL), apparent volume of distribution (Vd), mean residence time (MRT), bioavailability (F), etc.).

[2] = system: COL1A1; experiment: In vitro efficacy in semi-activated LX2 cells, qPCR: COL1A1; format: cell-based; details: 48 hours, Q-PCR; for inhibition at 50 µM: Homo sapiens, LX-2, 50 µM, read-out: COL1A1 mRNA inhibition rate
Method: (§1) Test compounds were added to the LX-2 cells respectively, and total RNA in the cells was extracted 48 hours later. This experiment was performed strictly in accordance with the instructions of the Total RNA Kit. The steps were as follows (note: this experiment was performed on ice throughout the entire process, and special RNase-free tips were used throughout the entire process): • 1) The 12-well cell culture plate was taken out from the incubator, the cell culture medium was discarded, the cells were washed twice with 1 mL of 1×PBS, and a negative pressure suction device was used to fully remove PBS; • 2) 350 μL of TRK Lysis Buffer mixture/well was prepared as needed (mixture preparation method: 1 mL of TRKLysis Buffer+20 μL of β-mercaptoethanol), vortexed and mixed well. 350 μL was added to each well of the 12-well cell culture plate, and allowed to stand at room temperature for 5 minutes to fully lyse the cells; • 3) 70% ethanol/well was prepared as needed, vortexed and mixed well. 350 μL was added to each well of the 12-well cell culture plate, mixed well by shaking, and transferred to the spin column (spin column+collection tube were assembled); • 4) Centrifugation was performed at 4° C., 12000 g for 60 sec. The waste liquid was discarded after centrifugation, while the spin column was kept; • 5) 500 μL of RNA Wash Buffer I was added, centrifuged at 4° C., 12000 g for 60 sec, the waste liquid was discarded after centrifugation, and the collection column was kept; • 6) 500 μL of RNA Wash Buffer II (confirmed that ethanol had been added) was added, centrifuged at 4° C., 12000 g for 60 sec, the waste liquid was discarded after centrifugation, and the collection column was kept; • 7) step 6) was repeated once again, centrifugation was performed at 4° C., 12000 g for 90 sec, the waste liquid was discarded after centrifugation, and the collection column was kept; • 8) Centrifugation was performed at 4° C., 12000 g for 120 sec to ensure that the spin column was fully dried; • 9) The dried spin column was inserted into a new 1.5 mL EP tube, and 30 μL of DEPC water was added to the membrane in the center of the spin column. It should be careful not to touch the EP tube cover in this step. It was allowed to stand at room temperature for 5 minutes to ensure that the RNA was fully dissolved in DEPC water. Centrifugation was performed at 4° C., 12000 g for 60 sec, and the EP tube was kept; • 10) NanoDrop ultra-micro-volume spectrophotometer was used to detect RNA concentration;
(§2) 5.2 Reverse transcription of RNA into cDNA: According to the instructions of PrimeScript™ RT reagent Kit (Perfect Real Time), the specific experimental steps were as follows:
(§3) 5.3 Q-PCR detection of target gene expression: According to the instructions of Power SYBR® Green PCR Master Mix, the specific operations were as follows:
(§4) After the reaction was completed, the amplification curve and dissolution curve of Q-PCR were confirmed, and the relative quantification method ([…]) was used to perform data analysis on the experimental results.
(§5) LX2 cells were passaged and plated normally. […] After 48 hours, the cells were collected, total RNA was extracted, and Q-PCR was used to detect the changes in the mRNA expression levels of liver fibrosis-related genes (ACTA2 encoding α-SMA, COL1A1 and COLIA2 encoding collagen I, COL3A1 encoding collagen III, SMAD3 encoding Smad3) and inflammation-related genes (IL1β encoding IL-1β, TNFα encoding TNFα) (for specific methods, see 5. Q-PCR detection of target gene expression as described above). α-SMA was a marker of hepatic stellate cell activation, and collagen I and collagen III were the main components of extracellular matrix deposition.

[3] = system: COL1A2; experiment: In vitro efficacy in semi-activated LX2 cells, qPCR: COL1A2; format: cell-based; details: Q-PCR; for inhibition at 50 µM: Homo sapiens, LX-2, 48 hours, read-out: COL1A2 mRNA inhibition rate
Method: as §1, §2, §3, §4
(§6) LX2 cells were passaged and plated normally. After adherent growth for 12 hours, 50 µM of the test compound was added. After 48 hours, the cells were collected, total RNA was extracted, and Q-PCR was used to detect the changes in the mRNA expression levels of liver fibrosis-related genes (ACTA2 encoding α-SMA, COL1A1 and COLIA2 encoding collagen I, COL3A1 encoding collagen III, SMAD3 encoding Smad3) and inflammation-related genes (IL1β encoding IL-1β, TNFα encoding TNFα) (for specific methods, see 5. Q-PCR detection of target gene expression as described above). α-SMA was a marker of hepatic stellate cell activation, and collagen I and collagen III were the main components of extracellular matrix deposition.

[4] = system: COL3A1; experiment: In vitro efficacy in semi-activated LX2 cells, qPCR: COL3A1; format: cell-based; details: 48 hours, Q-PCR; for inhibition at 50 µM: Homo sapiens, LX-2, 50 µM, read-out: COL3A1 mRNA inhibition rate
Method: as §1, §2, §3, §4, §5

[5] = system: α-SMA; experiment: In vitro efficacy in semi-activated LX2 cells, qPCR: α-SMA; format: cell-based; details: 48 hours, Q-PCR; for inhibition at 50 µM: read-out: α-SMA mRNA inhibition rate; for inhibition of the expression of α-SMA at the mRNA level: Table 2
Method: as §1, §2, §3, §4, §5

[6] = system: Smad3; experiment: In vitro efficacy in semi-activated LX2 cells, qPCR: Smad3; format: cell-based; details: 48 hours, Q-PCR; for inhibition at 50 µM: Homo sapiens, LX-2, 50 µM, read-out: Smad3 mRNA inhibition rate; for inhibition of the expression of Smad3 at the mRNA level: Table 2
Method: as §1, §2, §3, §4, §5

[7] = system: IL-1β; experiment: In vitro efficacy in semi-activated LX2 cells, qPCR: IL-1β; format: cell-based; details: 48 hours, Q-PCR; for inhibition at 50 µM: Homo sapiens, LX-2, 50 µM, read-out: IL-1β mRNA inhibition rate
Method: as §1, §2, §3, §4, §5

[8] = system: TNF-α; experiment: In vitro efficacy in semi-activated LX2 cells, qPCR: TNF-α; format: cell-based; details: Q-PCR; for inhibition at 50 µM: Homo sapiens, LX-2, 48 hours, read-out: TNF-α mRNA inhibition rate
Method: as §1, §2, §3, §4, §6

[9] = system: collagen I and collagen III; experiment: Semi-activated LX2 cells, qPCR: collagen I and collagen III at the mRNA level; format: cell-based; details: 48 hours, Q-PCR, Table 2
Method: as §1, §3
as §6, with “deposition. […]” for “deposition.”

[10] = system: liver fibrosis-related genes; experiment: Semi-activated LX2 cells, qPCR: liver fibrosis-related genes overall; format: cell-based; details: 48 hours, Q-PCR, Table 2
Method: as §1, §3, §6

[11] = system: α-SMA; experiment: Semi-activated LX2 cells, Western blot: α-SMA protein; format: cell-based; details: 50-400 μM, 48 hours, FIG. 2, vs 50 μM aspartic acid

Structure (SMILES)	inhibition at 50 µM [2] [%]	inhibition at 50 µM [3] [%]	inhibition at 50 µM [4] [%]	inhibition at 50 µM ([5]; 50 µM) [%]	inhibition at 50 µM [6] [%]	inhibition at 50 µM [7] [%]	inhibition at 50 µM [8] [%]	inhibition of the expression of collagen I and collagen III at the mRNA level [9]	further results
N[C@@H](CC(=O)O)C(=O)O [Aspartic acid, aspartic acid]									AUC(0-t) [1]: 26700 ng·h/mL; Tmax [1]: 24 h; Cmax ([1]; read-out: Cmax): 1960 ng/mL
O=C(O)C[C@H](NC(=O)OCc1ccccc1)C(=O)O [Compound 2]	25 to 50	1 to 10	10 to 25	1 to 10	1 to 10	1 to 10	10 to 25	could inhibit	
C=CCOC(=O)[C@H](CC(=O)O)NC(=O)OCC1c2ccccc2-c2ccccc21 [Compound 10]	1 to 10	1 to 10	10 to 25	1 to 10	1 to 10	1 to 10	10 to 25	could inhibit	
CCOC(=O)C[C@H](N)C(=O)OCC.Cl [Compound 12]								could inhibit	COL1A1 mRNA inhibition rate ([2]; 50 µM): C (C represented that the inhibition rate was 25% to 50%); COL1A2 mRNA inhibition rate ([3]; 50 µM, 48 hours): E (E represented that the inhibition rate was 1% to 10%); COL3A1 mRNA inhibition rate ([4]; 50 µM): C (C represented that the inhibition rate was 25% to 50%); α-SMA mRNA inhibition rate ([5]; 50 µM): E (E represented that the inhibition rate was 1% to 10%); Smad3 mRNA inhibition rate ([6]; 50 µM): D (D represented that the inhibition rate was 10% to 25%); inhibition of the expression of Smad3 at the mRNA level [6]: could inhibit; IL-1β mRNA inhibition rate ([7]; 50 µM): E (E represented that the inhibition rate was 1% to 10%); TNF-α mRNA inhibition rate ([8]; 50 µM, 48 hours): D (D represented that the inhibition rate was 10% to 25%); inhibition of the mRNA expression levels of liver fibrosis-related genes (overall) [10]: stronger effects
CC(C)(C)OC(=O)C[C@H](N)C(=O)O [Compound 13]		1 to 10		1 to 10		1 to 10	1 to 10		
N[C@@H](CC(=O)OC1CCCCC1)C(=O)O [Compound 23]	1 to 10	1 to 10	1 to 10		1 to 10	1 to 10	1 to 10		
COC(=O)[C@H](CC(=O)O)NC(=O)OC(C)(C)C [Compound 26]	25 to 50	1 to 10	25 to 50	10 to 25	10 to 25		10 to 25	could inhibit	inhibition of the expression of α-SMA at the mRNA level [5]: could inhibit; inhibition of the expression of Smad3 at the mRNA level [6]: could inhibit; inhibition of the mRNA expression levels of liver fibrosis-related genes (overall) [10]: stronger effects
NCC(=O)N[C@@H](CC(=O)O)C(=O)O [Compound 28] (H-Gly-Asp-OH)	10 to 25	1 to 10	10 to 25	10 to 25	10 to 25	10 to 25	1 to 10	could inhibit	inhibition of the expression of α-SMA at the mRNA level [5]: could inhibit; inhibition of the expression of Smad3 at the mRNA level [6]: could inhibit
CC(=O)N[C@@H](CC(=O)O)C(=O)O [Compound 30]	25 to 50	1 to 10		1 to 10		10 to 25		could inhibit	
CNC(=O)C[C@H](N)C(=O)O [Compound 33]	25 to 50	1 to 10	1 to 10	25 to 50	1 to 10	1 to 10		could inhibit	inhibition of the expression of α-SMA at the mRNA level [5]: could inhibit
N[C@@H](CC(=O)O)C(=O)N[C@@H](Cc1ccccc1)C(=O)O [Compound 39] (H-Asp-Phe-OH)		1 to 10	1 to 10				1 to 10		
CC(C)(C)OC(=O)C[C@H](N)C(=O)OC(C)(C)C [Compound 41]			1 to 10			1 to 10			inhibitory effect on α-SMA protein as compared to ASP [11]: stronger inhibitory effects
CCC(=O)N[C@@H](CC(=O)O)C(=O)O [Compound 58, propionyl-L-aspartic acid]		1 to 10	1 to 10	1 to 10		1 to 10			
COC(=O)N[C@@H](CC(=O)O)C(=O)O [Compound 61, (methoxycarbonyl)-L-aspartic acid]	25 to 50	1 to 10	1 to 10		1 to 10	1 to 10	1 to 10	could inhibit	

Source: patent US20250025438A1, “Derivative of aspartic acid and use thereof in treatment of metabolic diseases such as hepatic fibrosis and non-alcoholic hepatitis” (SHENZHEN JINGTAI TECHNOLOGY CO., LTD., priority 2021, published 2025)
